Where two headings read alike, the source gives them in different places. Where no end group is shown, it is not given here.
Experiments:
[1] = system: normal human CD34 positive cells containing hematopoeitic progenitors (HSC); conditions: 24 h exposure
[2] = system: tumor cell lines
Protocol: (§2) The cells cultured in RPMI media and 10% fetal calf serum were treated with various concentrations of SEQ ID NO: 3 or SEQ ID NO: 19 at various concentrations for 24 hours and cell viability was determined using Vi-CELL automated cell counter.

[3] = system: tumor cell lines; test: Cell viability after 24 h treatment (Vi-CELL automated cell counter); conditions: RPMI media and 10% fetal calf serum
Protocol: as §2

[4] = Tolerability in tumor-bearing nude mice; format: in vivo; conditions: 60 mg/kg dose; all animals recovered quickly
Protocol: (§1) Nude mice bearing the H-69 small cell carcinoma xenografts were treated with PEP-2 encapsulated in PEGylated liposomes as previously described. Female mice (20-22 g) were inoculated […] with 10 million tumor cells suspended in 50 uL of PBS and an equal volume of matrigel. When the tumors were approximately 50 mm 3, the animals were randomized into groups of 6 and either treated with 0.06 ml of empty PEGylated liposomes, or 0.03 ml of PEGylated liposomes (30 mg/kg of PEP-2) or 0.06 ml of PEGylated liposomes (60 mg/kg of PEP-2), every 4 days. Tumor size (FIG. 10) and animal weight (FIG. 11) was measured every three days. […] Treatment of mice bearing advanced Tumors (FIG. 12) and mice with advanced tumors tolerate the encapsulated PEP-2 liposome treatment (FIG. 13).

[5] = system: H-69 small cell carcinoma xenografts; test: H-69 xenograft tumor size in nude mice; format: in vivo; conditions: 30 or 60 mg/kg of PEP-2 in PEGylated liposomes, every 4 days
Protocol: as §1

## CC[C@H](C)[C@H](NC(=O)[C@H](CCCCN)NC(=O)[C@@H](NC(=O)[C@H](CCC(N)=O)NC(=O)[C@@H](N)CCCNC(=N)N)[C@@H](C)CC)C(=O)N[C@@H](Cc1c[nH]c2ccccc12)C(=O)N[C@@H](Cc1ccccc1)C(=O)N[C@@H](CCC(N)=O)C(=O)N[C@@H](CC(N)=O)C(=O)N[C@@H](CCCNC(=N)N)C(=O)N[C@@H](CCCNC(=N)N)C(=O)N[C@@H](CCSC)C(=O)N[C@@H](CCCCN)C(=O)N[C@@H](Cc1c[nH]c2ccccc12)C(=O)N[C@@H](CCCCN)C(=O)N[C@@H](CCCCN)C(=O)N[C@@H](Cc1c[nH]cn1)C(=O)N[C@@H](Cc1c[nH]cn1)C(=O)N[C@@H](Cc1c[nH]cn1)C(=O)N[C@@H](CCCNC(=N)N)C(=O)N[C@@H](CC(C)C)C(=O)N[C@@H](CO)C(=O)N[C@@H](Cc1c[nH]cn1)C(=O)O [SEQ ID NO: 3]
[1]
  IC50: > 80 µM
[2]
  growth inhibition / cytotoxicity in tumor cell lines: cytotoxic to most, but not all, tumor cell lines

## HHHRLSH [SEQ ID NO: 1, HHHRLSH]
[3]
  growth inhibition / cytotoxicity in tumor cell lines: did not inhibit growth

## CC[C@H](C)[C@H](NC(=O)[C@H](CCCCN)NC(=O)[C@@H](NC(=O)[C@H](CCC(N)=O)NC(=O)[C@@H](N)CCCNC(=N)N)[C@@H](C)CC)C(=O)N[C@@H](Cc1c[nH]c2ccccc12)C(=O)N[C@@H](Cc1ccccc1)C(=O)N[C@@H](CCC(N)=O)C(=O)N[C@@H](CC(N)=O)C(=O)N[C@@H](CCCNC(=N)N)C(=O)N[C@@H](CCCNC(=N)N)C(=O)N[C@@H](CCSC)C(=O)N[C@@H](CCCCN)C(=O)N[C@@H](Cc1c[nH]c2ccccc12)C(=O)N[C@@H](CCCCN)C(=O)N[C@@H](CCCCN)C(=O)N[C@@H](C)C(=O)N[C@@H](C)C(=O)N[C@@H](C)C(=O)N[C@H](C(=O)N[C@@H](CC(C)C)C(=O)N[C@@H](CO)C(=O)N[C@@H](C)C(=O)O)C(C)C [SEQ ID NO: 19, reference compound]
[2]
  growth inhibition / cytotoxicity in tumor cell lines: little or no effect on cell growth

## RQIKIWFQNRRIKWKKHHHRLSH (penetratin) [SEQ ID NO: 34]
[4]
  acute adverse effect: acute transient distress
[5]
  tumor size: Decreases the Size of Tumors
